US20170121344A1 (Siga Technologies, Inc., priority 2009, published 2017)
Read-outs that look alike come from different tables or passages of the source.

System: Dengue-2 (Strain New Guinea C)
Experiment: Viral yield assay against Dengue-2 in Vero cells
Format: cell-based, Dengue virus
Settings: Dengue virus
Procedure, shortened: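 Progeny virus from compound-treated Vero monolayers infected at an MOI of 0.1 is collected after 48 h at 37° C and titered on Vero cells. DMSO serves as control.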

[1] = Vero cells, MOI 0.1, harvested 48 hours post infection, read-out: Activity (EC50 class) against Dengue-2 Virus in Vero cells
[2] = DENV2, Vero, 48 h, read-out: Activity (EC50 in μM) DENV-2
[3] = Vero, 48 h, read-out: Activity (EC50 class) against Dengue-2 Virus in Vero cells
[4] = DENV2, viral yield assay, Vero cells, MOI 0.1, 48 hours post infection, read-out: Activity (EC50 in μM) DENV-2

Compound | EC50 [1] [µM] | EC50 [4] [µM] | also measured
Cc1ccc(-c2c3c(nc4sc(C(N)=O)c(N)c24)CCCCC3)cc1 [Compound 220, 3-Amino-4-p-tolyl-6,7,8,9-tetrahydro-5H-1-thia-10-aza-cyclohepta[f]indene-2-carboxylic acid amide] | > 25 |  | 
Nc1c(C(=O)N2CCC[C@H]2C(=O)O)sc2nc(-c3cccs3)ccc12 [Compound 484, 1-[3-amino-6-(2-thienyl)thieno[2,3-b]pyridine-2-carbonyl]pyrrolidine-2-carboxylic acid] |  |  | EC50 [2]: < 5 µM
COC(=O)c1cc(OC)c(OC)cc1NC(=O)c1sc2nc3c(cc2c1N)CN(C)CC3 [Compound 263, 2-[(3-Amino-6-methyl-5,6,7,8-tetrahydro-thieno[2,3-b][1,6]naphthyridine-2-carbonyl)-amino]-4,5-dimethoxy-benzoic acid methyl ester] | > 25 |  | 
COc1ccc(NC(=O)c2sc3nc4c(cc3c2N)CCC4)cc1 [Compound 184, 3-Amino-6,7-dihydro-5H-cyclopenta[b]thieno[3,2-e]pyridine-2-carboxylic acid (4-methoxy-phenyl)-amide] |  |  | EC50 [3]: > 25 µM
CCOC(=O)c1cc2c(N)c(C(=O)Nc3cccc(C(F)(F)F)c3)sc2nc1N [Compound 75, 3,6-Diamino-2-(3-trifluoromethyl-phenylcarbamoyl)-thieno[2,3-b]pyridine-5-carboxylic acid ethyl ester] | 5 to 25 |  | 
Cc1ccc(F)cc1NC(=O)c1sc2nc3c(cc2c1N)CN(C)CC3 [Compound 61, 3-Amino-6-methyl-5,6,7,8-tetrahydro-thieno[2,3-b][1,6]naphthyridine-2-carboxylic acid (5-fluoro-2-methyl-phenyl)-amide] | < 5 |  | 
CCOC(=O)c1c(NC(=O)c2sc3nc4c(cc3c2N)CN(C)CC4)sc2c1CCCC2 [Compound 57, 2-[(3-Amino-6-methyl-5,6,7,8-tetrahydro-thieno[2,3-b][1,6]naphthyridine-2-carbonyl)-amino]-4,5,6,7-tetrahydro-benzo[b]thiophene-3-carboxylic acid ethyl ester] | < 5 |  | 
CCCSc1nc2ccc(NC(=O)c3sc4nc(-c5cccc(OC)c5)ccc4c3N)cc2s1 [Compound 568, 3-amino-6-(3-methoxyphenyl)-N-(2-propylsulfanyl-1,3-benzothiazol-6-yl) thieno[2,3-b]pyridine-2-carboxamide] |  | < 5 | 
CCc1cccc(NC(=O)c2sc3nc(-c4ccc5c(c4)OCO5)ccc3c2N)c1 [Compound 592, 3-amino-6-(1,3-benzodioxol-5-yl)-N-(3-ethylphenyl)thieno[2,3-b]pyridine-2-carboxamide] |  | < 5 | 
CCCCNC(=O)c1sc2nc3c(cc2c1N)CCCCC3 [Compound 282, 3-amino-N-butyl-6,7,8,9-tetrahydro-5H-cyclohepta [b]thieno[3,2-e]pyridine-2-carboxamide] |  | 5 to 25 | 
N#Cc1cc2c(N)c(C(=O)Nc3ccc(S(N)(=O)=O)cc3)sc2nc1N [Compound 136, 3,6-Diamino-5-cyano-thieno[2,3-b]pyridine-2-carboxylic acid (4-sulfamoyl-phenyl)-amide] | > 25 |  | 
Cc1ccc(-c2ccc3c(N)c(C(=O)Nc4ccccc4)sc3n2)cc1 [Compound 642, 3-amino-N-phenyl-6-(p-tolyl)thieno[2,3-b]pyridine-2-carboxamide] |  | < 5 | 
CCc1c(C)nc2sc(C(N)=O)c(N)c2c1C [Compound 160, 3-Amino-5-ethyl-4,6-dimethyl-thieno[2,3-b]pyridine-2-carboxylic acid amide] | > 25 |  | 
Cc1csc(NC(=O)c2sc3nc(C)c4c(c3c2N)CCCC4)n1 [Compound 4, 1-Amino-5-methyl-6,7,8,9-tetrahydro-thieno[2,3-c]isoquinoline-2-carboxylic acid (4-methyl-thiazol-2-yl)-amide] |  |  | EC50 [3]: < 5 µM
COc1ccc(-c2ccc3c(N)c(C(=O)Nc4ccc(Br)c(C)c4)sc3n2)cc1OC [Compound 579, 3-amino-N-(4-bromo-3-methyl-phenyl)-6-(3,4-dimethoxyphenyl)thieno[2,3-b] pyridine-2-carboxamide] |  | < 5 | 
COc1cccc(-c2ccc3c(N)c(C(=O)Nc4ccc(C)cc4)sc3n2)c1 [Compound 553, 3-amino-6-(3-methoxyphenyl)-N-(p-tolyl)thieno[2,3-b]pyridine-2-carboxamide] |  | < 5 | 
COc1ccc(Cl)cc1NC(=O)c1sc2nc(-c3cccs3)ccc2c1N [Compound 460, 3-amino-N-(5-chloro-2-methoxy-phenyl)-6-(2-thienyl)thieno[2,3-b]pyridine-2-carboxamide] |  | < 5 | 
Cc1cc(C)c2c(C)c(C(=O)NCC(C)C)sc2n1 [Compound 395, N-isobutyl-3,4,6-trimethyl-thieno[2,3-b] pyridine-2-carboxamide] |  | 5 to 25 | 
CN1CCc2nc3sc(C(=O)NCc4ccc5c(c4)OCO5)c(N)c3cc2C1 [Compound 269, 3-Amino-6-methyl-5,6,7,8-tetrahydro-thieno[2,3-b][1,6]naphthyridine-2-carboxylic acid (benzo[1,3]dioxol-5-ylmethyl)-amide] | > 25 |  | 
Nc1c(C(=O)Nc2cc(F)ccc2F)sc2nc(-c3cc(Cl)ccc3Cl)ccc12 [Compound 629, 3-amino-6-(2,5-dichlorophenyl)-N-(2,5-difluorophenyl)thieno[2,3-b]pyridine-2-carboxamide] |  | < 5 | 
COc1ccc(NC(=O)c2sc3nc(C)cc(C(F)(F)F)c3c2N)cc1 [Compound 162, 3-Amino-6-methyl-4-trifluoromethyl-thieno[2,3-b]pyridine-2-carboxylic acid (4-methoxy-phenyl)-amide] | > 25 |  | 
COc1ccc(NC(=O)c2sc3nc(-c4cccs4)ccc3c2N)c(OC)c1 [Compound 432, 3-amino-N-(2,4-dimethoxyphenyl)-6-(2-thienyl)thieno[2,3-b]pyridine-2-carboxamide] |  |  | EC50 [2]: 5 to 25 µM
Cc1nc2c(sc3nc4c(cc32)COC(C)(C)C4)c(=O)n1CCN1CCOCC1 [Compound 231, 3,8,8-Trimethyl-2-(2-morpholin-4-yl-ethyl)-8,9-dihydro-2H,6H-7-oxa-11-thia-2,4,10-triaza-benzo[b]fluoren-1-one] |  |  | EC50 [3]: > 25 µM
Nc1c(C(=O)Nc2cccc(C(F)(F)F)c2)sc2ncccc12 [Compound 420, 3-amino-N-[3-(trifluoromethyl)phenyl] thieno[2,3-b]pyridine-2-carboxamide] |  | < 5 | 
COc1ccc(-c2ccc3c(N)c(C(=O)Nc4ccccc4)sc3n2)cc1OC [Compound 634, 3-amino-6-(3,4-dimethoxyphenyl)-N-phenyl-thieno[2,3-b]pyridine-2-carboxamide] |  | < 5 | 
Cc1cc(C)c2c(C)c(C(=O)NCCC(=O)N3CCCC3)sc2n1 [Compound 405, 3,4,6-trimethyl-N-(3-oxo-3-pyrrolidin-1-yl-propyl)thieno[2,3-b]pyridine-2-carboxamide] |  | < 5 | 
COc1ccc(C(F)(F)F)cc1NC(=O)c1sc2nc(-c3ccc(OC)c(OC)c3)ccc2c1N [Compound 531, 3-amino-6-(3,4-dimethoxyphenyl)-N-[2-methoxy-5-(trifluoromethyl)phenyl]thieno [2,3-b]pyridine-2-carboxamide] |  | < 5 | 
NC(=O)c1sc2nc3c(c(-c4ccc(Cl)cc4)c2c1N)CCCC3 [Compound 224, 3-Amino-4-(4-chloro-phenyl)-5,6,7,8-tetrahydro-thieno[2,3-b]quinoline-2-carboxylic acid amide] |  |  | EC50 [3]: > 25 µM
